Publication PMC8148378 (Chemical Science, 2019)
Values after ≈ are worked out from the molar mass of the structure shown.

Tests used:
E. faecalis ATCC-29212 = test: MIC determination, larger panel; type: cell-based; conditions: Enterococcus faecalis, ATCC29212, read-out: MIC E. faecalis
A. baumannii DSM-30008 = test: MIC determination, larger panel; type: cell-based; conditions: Acinetobacter baumannii, DSM30008, read-out: MIC A. baumannii, DSM-30008
E. coli WT-3 = test: MIC determination, larger panel; type: cell-based; conditions: Escherichia coli, WT3, read-out: MIC E. coli WT-3
E. aerogenes DSM-30053 = test: MIC determination, larger panel; type: cell-based, Enterobacter aerogenes; conditions: Klebsiella aerogenes, DSM30053, read-out: MIC E. aerogenes
E. cloacae DSM-30054 = test: MIC determination, larger panel; type: cell-based; conditions: Enterobacter cloacae, DSM30054, read-out: MIC E. cloacae
[1] = test system: P. aeruginosa ESBL 1 DSM-24600; test: MIC determination, larger panel; type: cell-based; conditions: Pseudomonas aeruginosa, DSM24600, read-out: MIC P. aeruginosa ESBL 1
[2] = test system: P. aeruginosa ESBL 2 DSM-46316; test: MIC determination, larger panel; type: cell-based; conditions: Pseudomonas aeruginosa, DSM46316, read-out: MIC P. aeruginosa ESBL 2
K. pneumoniae DSM-30104 = test: MIC determination, larger panel; type: cell-based; conditions: Klebsiella pneumoniae, DSM30104, read-out: MIC K. pneumoniae
S. marcescens DSM-30121 = test: MIC determination, larger panel; type: cell-based; conditions: Serratia marcescens, DSM30121, read-out: MIC S. marcescens
P. mirabilis DSM-4479 = test: MIC determination, larger panel; type: cell-based; conditions: Proteus mirabilis, DSM4479, read-out: MIC P. mirabilis
[3] = Single dosing pharmacokinetic study; type: in vivo, male CD-1 outbred mice; conditions: 5 mg/kg, plasma
In vivo tolerance study = test: In vivo tolerance study; design: species or system male CD-1 mice
[4] = Neutropenic thigh infection model, s.c. and i.v. administration; type: in vivo, neutropenic CD-1 mice; conditions: male, CD-1, mouse, muscle, other: intravenous then subcutaneous
E. coli strain ATCC25922 = test: as above; type: in vivo, neutropenic CD-1 mice; conditions: 24 h after infection
E. coli ATCC25922 = test: Neutropenic murine thigh infection model, i.v. administration; type: in vivo, male ICR mice

Question: For `CC(C)Oc1c(NC(=O)c2ccc(NC(=O)[C@H](CC(N)=O)NC(=O)c3ccc(NC(=O)c4ccc(C#N)cc4)cc3)cc2)ccc(C(=O)Nc2ccc(C(=O)O)cc2)c1O` [Compound 22], which MIC (E. faecalis ATCC-29212) is on record?
Answer: The MIC was 0.5 µg/mL (≈ 0.616 µM).

Question: What about the MIC (A. baumannii DSM-30008) of the same molecule?
Answer: Its MIC is 1 µg/mL (≈ 1.23 µM).

Question: What about the MIC (E. coli WT-3) of the same molecule?
Answer: The MIC was 0.25 µg/mL (≈ 0.308 µM).

Question: And the MIC (E. aerogenes DSM-30053)?
Answer: The MIC was 0.06 µg/mL (≈ 0.0739 µM).

Question: What about the MIC (E. cloacae DSM-30054) of the same molecule?
Answer: Its MIC is 0.25 µg/mL (≈ 0.308 µM).

Question: And the MIC [1]?
Answer: The MIC was 4 µg/mL (≈ 4.93 µM).

Question: And the MIC [2]?
Answer: The MIC was 4 µg/mL (≈ 4.93 µM).

Question: And the MIC (K. pneumoniae DSM-30104)?
Answer: Its MIC is 0.5 µg/mL (≈ 0.616 µM).

Question: What about the MIC (S. marcescens DSM-30121) of the same molecule?
Answer: The MIC was over 64 µg/mL.

Question: What about the MIC (P. mirabilis DSM-4479) of the same molecule?
Answer: The MIC was over 64 µg/mL.

Question: And the “V/F (volume of distribution)” value ([3]; i.v.)?
Answer: The value was 3.5 L/kg.

Question: And the AUC ([3]; male, CD-1, mouse, iv, area under the curve (AUC), 5 mg kg^−1, plasma)?
Answer: The AUC was about 2000 ng·h/mL.

Question: And the adverse effects (In vivo tolerance study; 5 mg kg^−1 i.v. four times every 6 hours (20 mg kg^−1 per day))?
Answer: Its adverse effects is “no adverse effect”.

Question: And the adverse effects (In vivo tolerance study; 10 mg kg^−1 i.v. four times every 6 hours (40 mg kg^−1 per day))?
Answer: Its adverse effects is “no adverse effect”.

Question: And the adverse effects (In vivo tolerance study; 20 mg kg^−1 i.v. four times every 6 hours (80 mg kg^−1 per day))?
Answer: The adverse effects was “one animal in the group treated at 20 mg kg^−1 showed adverse effects”.

Question: What about the concentration at 24 h [4] of the same molecule?
Answer: Its concentration at 24 h is about 100 ng/mL.

Question: What about the “reduction of the bacterial load in lung” value (E. coli strain ATCC25922) of the same molecule?
Answer: The value was 3 log units.

Question: And the “bacterial load in kidney” value (E. coli strain ATCC25922; all dosing groups, compared to vehicle-treated animals)?
Answer: Its value is “complete bacterial clearance”.

Question: What about the “Log10 variation from vehicle control” value (E. coli ATCC25922; 20mg/kg/day i.v.) of the same molecule?
Answer: Its value is −3.97 CFU/g.

Question: What about the “Log10 variation from vehicle control” value (E. coli ATCC25922; 40mg/kg/day i.v.) of the same molecule?
Answer: The value was −5.32 CFU/g.

Question: What about the “Log10 variation from vehicle control” value (E. coli ATCC25922; 50mg/kg/day i.v.) of the same molecule?
Answer: The value was −4.89 CFU/g.
